Measured values: patent publication US20010007907A1, “3-EPI COMPOUNDS OF VITAMIN D3 AND USES THEREOF” (WOMEN AND INFANTS HOSPITAL, priority 1997, published 2001)
Like-named read-outs stand apart in the source and are kept apart here.

What was measured:
[1] = test system: rat osteosarcoma cell line UMR 106
Method: (§1) In order to address whether vitamin D3 analogs can be converted to 3-epi forms, a number of analogs were tested in bone cells under identical experimental conditions as described in Example IX.

MG-63 = conditions: relative to 1α,25(OH)2D3 = 100; cited from earlier work
[2] = biological target: T1, plasma vitamin D binding protein (DBP) (Homo sapiens, UniProt P02774); conditions: relative competitive index; RCI of 1α,25(OH)2D3 is by definition 100; cited from earlier work
T1 sequence (P02774 17-474): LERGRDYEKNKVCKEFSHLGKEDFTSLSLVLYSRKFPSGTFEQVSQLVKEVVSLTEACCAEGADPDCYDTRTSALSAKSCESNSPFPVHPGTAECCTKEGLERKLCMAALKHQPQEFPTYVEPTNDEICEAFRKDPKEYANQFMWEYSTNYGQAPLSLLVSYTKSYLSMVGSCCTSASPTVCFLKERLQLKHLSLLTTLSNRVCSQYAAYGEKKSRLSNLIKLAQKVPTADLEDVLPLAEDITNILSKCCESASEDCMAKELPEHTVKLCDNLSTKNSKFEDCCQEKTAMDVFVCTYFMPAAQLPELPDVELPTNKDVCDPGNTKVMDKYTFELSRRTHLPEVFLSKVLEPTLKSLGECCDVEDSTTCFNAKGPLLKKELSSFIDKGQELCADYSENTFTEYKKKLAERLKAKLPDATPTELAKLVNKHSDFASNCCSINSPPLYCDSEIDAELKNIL

[3] = biological target: T1, plasma vitamin D binding protein (DBP); assay: Competitive ligand binding to plasma vitamin D binding protein (RCI); conditions: fold over 1α,25(OH)2D3
Description: The elevated levels of 3-epi binding indicate that 3-epi forms bind to DBP more avidly than their isomeric counterparts. Such enhanced binding may in turn enhance the stability of 3-epi forms in the plasma, and thus may explain the prolonged presence of 3-epi metabolites in vivo.
Ligand binding assays are well known in the art. […] Such plots give linear curves characteristic for each test analog, the slopes of which are equal to the analog's competitive index (Wecksler, W. R. and Norman, A. W. (1980) Methods of Enzymol. 67:494-500).

[4] = test system: intestinal calcium mobilization; conditions: cited from earlier work
human keratinocytes = assay: Metabolism in human keratinocytes (incubation, lipid extraction, HPLC); type: in vitro ADME
Method: Keratinocytes were prepared as described previously (Kim H. […] First passage keratinocytes were seeded at 0.5×10^6 into […] flasks in keratinocytes growth media (KGM, Clonetics, Inc.). The cells were fed every 2-3 days. The cells were 70-80% confluent usually after 5 days. […] At the end of 24 hr incubation period in a 37° C., 5% CO2 incubator, an equal volume of methanol was added to the cultures. The cells were then scraped from the flasks and all of the media and the cells were pooled and lipid extraction was performed from both cells and media using the Bligh and Dyer technique. […] Zorbax-SIL column eluted with 6% isopropanol in hexane at a flow rate of 2 ml/min. […] Resulting lipid extracts were analyzed using the following HPLC conditions: Zorbax-SIL column eluted with 9% isopropanol in hexane at a flow rate of 2 ml/min. […] Lipid extracts of different time points were analyzed by straight phase HPLC. […] This metabolite peak appeared at 1 hr. incubation period and increased to its maximum by 3 hr.

[5] = test system: intestinal calcium transport; conditions: relative to 1α,25(OH)2D3 = 100; cited from earlier work
[6] = test system: bone calcium mobilization; conditions: relative to 1α,25(OH)2D3 = 100; cited from earlier work
keratinocytes [7] = assay: Keratinocyte growth inhibition (cell number per well); type: cell-based, human; conditions: for inhibition of keratinocyte growth: result in words; for potency at inhibiting growth of keratinocytes compared with 1α,25(OH)2-3-epi-D3: data not shown
Method: To address the effect of 3-epi vitamin D3 compounds on keratinocyte growth, keratinocyte cultures were established at 25.000 cells/per well on day 0 in KGM. […] The cells were allowed to grow for 4 more days with one refeeding on day 3. Number of cells per well was determined on day 4.

bovine parathyroid cells [8] = assay: Inhibition of PTH secretion in bovine parathyroid cells; type: cell-based; conditions: result in words
Method: To determine the effect of 3-epi vitamin D3 compounds on parathyroid hormone secretion, bovine parathyroid cells were prepared as described in the metabolism studies. These cells were grown for four days in serum-free media. […] Steady state PTH seretion was determined by washing the cells 3 times with Dulbecco's PBS and then placing them in serum free media for 3 hours. The media was collected, centrifuged at 4° C. and analyzed from PTH using CH9 antibody as described previously (Brown A. J. et al. (1992) Endocrinology 130:276-281). The cell monolayers were dissolved in 0.1 N NaOH and assayed for protein by method of Bradford using a kit from Biorad Laboratories. PTH secretion is expressed as picograms PTH per milligram cell protein (FIG. 20, panel B).

Caco-2 cells = assay: Metabolism of synthetic analogs in Caco-2 cells (HPLC); type: in vitro ADME, human; conditions: for metabolites detected in subconfluent cells: Caco-2, 6 days after seeding; for metabolites detected in subconfluent cells / metabolites detected in confluent cells: 1 μM, 48 hours; for metabolites detected in confluent cells: Caco-2, 14 days after seeding
Method: To address whether the epimerization of vitamin D3 analogs occurs in other tissues, the intestinal cell line Caco-2 was used as a model system to investigate the metabolism of two synthetic analogs of 1,25(OH)2D3 in intestinal epithelial cells. Subconfluent (6 days after seeding) and confluent (14 days after seeding) cells were incubated with 1 μM 1,25(OH)2-16-ene-D3 or 1,25(OH)2-16-ene-23-yne-D3, respectively, for 48 hours.

[9] = biological target: T2, vitamin D3 nuclear receptors (VD3R) (Rattus norvegicus, UniProt P13053); assay: Osteocalcin VDRE reporter gene transcription assay in transfected ROS-17/2.8 cells
T2 sequence (P13053 1-423): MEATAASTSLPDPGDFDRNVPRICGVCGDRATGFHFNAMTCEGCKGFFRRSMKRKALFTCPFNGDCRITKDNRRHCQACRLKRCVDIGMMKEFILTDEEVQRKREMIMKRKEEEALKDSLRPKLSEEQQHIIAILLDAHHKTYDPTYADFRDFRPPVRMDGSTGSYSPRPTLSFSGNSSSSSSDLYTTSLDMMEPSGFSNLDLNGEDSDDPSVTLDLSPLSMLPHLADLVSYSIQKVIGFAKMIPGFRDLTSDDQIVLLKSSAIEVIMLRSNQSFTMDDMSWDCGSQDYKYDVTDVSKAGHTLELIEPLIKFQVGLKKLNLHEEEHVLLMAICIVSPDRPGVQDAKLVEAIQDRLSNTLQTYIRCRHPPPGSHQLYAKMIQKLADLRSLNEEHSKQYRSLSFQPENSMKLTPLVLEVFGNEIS

[10] = test system: rat osteosarcoma cell line UMR 106; assay: Metabolism in rat osteosarcoma cell line UMR 106 (HPLC); conditions: UMR 106, 1α,25(OH)2D3, 24 and 48 hours
Method: as §1

human placental explants = conditions: 1 uM 1α,25(OH)2D3
[11] = test system: human osteosarcoma cell (U-2 OS); assay: Metabolism of 1α,25(OH)2D3 in human osteosarcoma cell (U-2 OS); type: in vitro ADME; conditions: 3×10^7 and 12×10^7 cells
Method: HPLC profiles were determined at two different cell densities, 3×10^7 cells and 12×10^7 as shown in the upper and lower panels of the Figure, respectively.

HACAT cells = assay: Metabolism of 1α,25(OH)2D3 in immortalized human keratinocytes (HACAT); type: in vitro ADME; conditions: 24 hr, 1uM 1α,25(OH)2D3
Description: Primary cultures of human keratinocytes were used as a control (FIG. 12, panel A). The other three tissues tested included a cell line of immortalized human keratinocytes ([…] commonly studied cancer cell line (human promyelocytic leukemic cell line, HL-60) (FIG. 12, panel C), and perfused rat kidney (FIG. 12, Panel D). […] The experiments certainly establish the fact that the 3-epimerization is not ubiquitous, like the side chain oxidation pathways.

bovine parathyroid cells [12] = assay: Metabolism in bovine parathyroid cells (HPLC); type: in vitro ADME; conditions: 1 uM, 24 hours
Method: Bovine parathyroid glands obtained from a local slaughterhouse were digested with collagenase and the cells were cultured as previously described (Brown A. J. et al. (1992) Endocrinology 130:276-281), and seeded at a density of 80,000 cells/cm^2. Cells were grown to confluence in six days in serum free medium. […]. Incubations were terminated with methanol, and the samples were sent to our laboratory for HPLC analysis. The lipid extract was analyzed using the straight phase HPLC system (Zorbax-SIL column eluted with 6% isopropanol inhexane at 2 ml/min flow rate). […]

human leukemic cells = assay: Proliferation and differentiation of human leukemic cells; type: cell-based; conditions: data not shown
keratinocytes [13] = conditions: J. Invest. Dermatol. 101:713-718, 1993; cited from earlier work

SMILES: C=C1/C(=C\C=C2/CCC[C@]3(C)C([C@@H](C)CCCC(C)(C)O)=CCC23)C[C@@H](O)C[C@@H]1O (stereo partly drawn) [1α,25(OH)2-16-ene-20-epi-D3]
- conversion of vitamin D3 analog into less polar 3-epi metabolite [1]: 3-epi form

SMILES: C=C1C(=CC=C2CCCC3(C)C2CCC3C(C)CCCC(C)(C)O)CC(O)CC1O (stereo not drawn) [1α,25(OH)2-3-epi-D3, 3-epi-1α,25-dihydroxycholecalciferol]
- Osteocalcin Synthesis MG-63 (MG-63): 17
- Binding to DBP (RCI) [2]: 800
- increase in the binding to plasma vitamin D binding protein (DBP) compared to 1α,25(OH)2D3 [3]: eightfold
- Transcaltachia ([4]; relative to 1α,25(OH)2D3): 80%
- Transcaltachia ([4]; relative to 1α,25(OH)2D3 = 100): 80
- incubation time at which the tritiated metabolite reaches its maximum (human keratinocytes): 3 h
- metabolism into more polar metabolites (human keratinocytes): extensive metabolism
- Intestinal Calcium Transport [5]: 2.8
- Bone Calcium Mobilization [6]: 1.5
- inhibition of keratinocyte growth (keratinocytes [7]): significant biological activity
- inhibition of PTH secretion (bovine parathyroid cells [8]): significant biological activity

SMILES: C=C1/C(=C\C=C2/CCC[C@]3(C)C([C@H](C)CC#CC(C)(C)O)=CC[C@@H]23)C[C@@H](O)C[C@@H]1O [1α,25(OH)2-16-ene-23-yne-D3]
- metabolites detected in subconfluent cells (Caco-2 cells): no metabolites could be detected
- metabolites detected in confluent cells (Caco-2 cells): 3-epi forms
- rate of metabolism compared with 1,25(OH)2D3 or 1,25(OH)2-16-ene-D3 (Caco-2 cells; Caco-2, all growth conditions, data not shown): metabolized considerably slower
- conversion of vitamin D3 analog into less polar 3-epi metabolite [1]: 3-epi forms

SMILES: C=C1C(=CC=C2CCCC3(C)C(C(C)CC#CC(C)(C)O)=CCC23)CC(O)CC1O (stereo not drawn) [3-epi-1,25-dihydroxy-16-ene-25-yne-cholecalciferol]
- transcriptional activation in relation to isomeric counterpart [9]: slightly decreased
- transcriptional activity compared with 1α,25(OH)2D3 [9]: as active as 1α,25(OH)2D3
- induction of VD3R transcriptional activity ([9]; osteocalcin VDRE reporter): dose dependent manner

SMILES: C=C1/C(=C\C=C2/CCC[C@@]3(C)C2CCC3C(C)CCCC(C)(C)O)CC(O)C[C@@H]1O (stereo partly drawn) [1α,25(OH)2D3]
- Osteocalcin Synthesis MG-63 (MG-63): 100
- formation of 1α,25(OH)2-3-epi-D3 [10]: dose dependent
- epimerization of the 3-hydroxy group (human placental explants): unable to epimerize
- Transcaltachia ([4]; relative to 1α,25(OH)2D3 = 100): 100
- conversion into 3-epi form [11]: directly proportional to the concentration of cells
- incubation time at which the tritiated metabolite reaches its maximum (human keratinocytes; human keratinocytes from adult breast skin incubated with tritiated 25(OH)D3, physiological substrate concentration): 1 to 2 h
- formation of 1α,25(OH)2-3-epi-D3 (peak M) (human keratinocytes; primary human keratinocytes, 24 hr, 1uM 1α,25(OH)2D3): is formed in keratinocytes and the HACAT cells
- Intestinal Calcium Transport [5]: 100
- formation of 1α,25(OH)2-3-epi-D3 (peak M) (HACAT cells): is formed in keratinocytes and the HACAT cells
- conversion into 1α,25(OH)2-3-epi-D3 (bovine parathyroid cells [12]): have the ability to convert
- Bone Calcium Mobilization [6]: 100

SMILES: C=C1/C(=C\C=C2/CCC[C@]3(C)C([C@H](C)CCC(=O)C(C)(C)O)=CC[C@@H]23)C[C@@H](O)C[C@@H]1O [1α,25(OH)2-16-ene-24-oxo-D3]
- modulating proliferating and differentiation of human leukemic cells, compared with parent compound (human leukemic cells): equipotent effect as its parent compound
- accumulation of metabolite relative to remaining unmetabolized substrate (human keratinocytes; human): exceeded the amounts of remaining unmetabolized substrate
- potency at inhibiting growth of keratinocytes compared with 1α,25(OH)2-3-epi-D3 (keratinocytes [7]): more potent than 1α,25(OH)2-3-epi-D3
- inhibition of keratinocyte growth (keratinocytes [7]): equally potent

SMILES: C=C1C(=CC=C2CCCC3(C)C2CCC3C(C)CCCC(C)(C)O)CC(O)CC1O (stereo not drawn) [1α,25(OH)2-20-epi-D3]
- conversion of vitamin D3 analog into less polar 3-epi metabolite [1]: 3-epi form

SMILES: C=C1/C(=C\C=C2/CCC[C@]3(C)C([C@H](C)CCCC(C)(C)O)=CCC23)C[C@@H](O)C[C@@H]1O (stereo partly drawn) [1α,25(OH)2-16-ene-D3]
- metabolites detected in subconfluent cells (Caco-2 cells): 1,24,25(OH)3-16-ene-D3 and 1,25 (OH)2-24-oxo-16-ene-D3
- metabolites detected in confluent cells (Caco-2 cells): 3-epi form of 1,25(OH)2-16-ene-D3
- inhibiting proliferation and inducing differentiation of keratinocytes (keratinocytes [13]): most potent of the analogs tested
- potency at inhibiting growth of keratinocytes compared with 1α,25(OH)2-3-epi-D3 (keratinocytes [7]): more potent than 1α,25(OH)2-3-epi-D3
- inhibition of keratinocyte growth (keratinocytes [7]): equally potent
